According to PubChem BioAssay AID180 (DTP/NCI, 2004):
“And” between values parts separate entries of the source, which are not always exact repeats. Identical values can stand only once.

Tested on: BDF1 mice, Adenocarcinoma 755 s.c., tumor weight T/C
Test: NCI In Vivo Anticancer Drug Screen. Data for tumor model Adenocarcinoma 755 (subcutaneous) in B6D2F1 (BDF1) mice
Conditions: endpoint: mean tumor weight, higher = larger tumour
Outline: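 Compound activity was tested in mice carrying transplanted tumors. Survival or tumor size was measured, and each value is the treated-group measurement divided by that of the vehicle-treated control group (T/C).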

[1] = dose: 15.0 mg/kg/injection, schedule: Q01DX011 (ip), vehicle: methylcellulose (MC)
[2] = dose: 31.0 mg/kg/injection, schedule: Q01DX011 (ip), vehicle: methylcellulose (MC)
[3] = dose: 62.0 mg/kg/injection, schedule: Q01DX011 (ip), vehicle: methylcellulose (MC)
[4] = dose: 125.0 mg/kg/injection, schedule: Q01DX011 (ip), vehicle: methylcellulose (MC)
[5] = dose: 250.0 mg/kg/injection, schedule: Q01DX011 (ip), vehicle: methylcellulose (MC)
[6] = dose: 25.0 mg/kg/injection, schedule: Q01DX011 (ip), vehicle: carboxymethylcellulose (CMC)

C[C@]12CC[C@@H]3c4ccc(O)cc4CC[C@H]3[C@@H]1CC[C@@H]2O
T/C (dose: 125.0 mg/kg/injection, schedule: Q01DX011 (sc), vehicle: steriod suspending solution): 77 % of control
T/C (dose: 250.0 mg/kg/injection, schedule: Q01DX011 (sc), vehicle: steriod suspending solution): 32 % of control
T/C (dose: 500.0 mg/kg/injection, schedule: Q01DX011 (sc), vehicle: steriod suspending solution): 65 % of control
T/C (dose: 1000.0 mg/kg/injection, schedule: Q01DX011 (sc), vehicle: steriod suspending solution): 42 % of control

CSc1ncc(C)c(Nc2ccc(Cl)cc2)n1
T/C [1]: 102 % of control

CC1CN(Cc2ccccc2)C(=S)N(c2ccccc2)C1=O (centres undefined)
T/C [1]: 87 % of control
T/C [2]: 74 % of control
T/C [3]: 96 % of control
T/C [4]: 97 % of control
T/C [5]: 82 % of control

FC(F)(F)c1nc(=S)c2[nH]cnc2[nH]1
T/C (dose: 6.0 mg/kg/injection, schedule: Q01DX011 (ip), vehicle: carboxymethylcellulose (CMC)): 70 % of control
T/C [6]: 81 % of control
T/C (dose: 100.0 mg/kg/injection, schedule: Q01DX011 (ip), vehicle: carboxymethylcellulose (CMC)): 89 % of control

CCCCN(C)N=Nc1ccc(CCCC(=O)OCC)cc1
T/C (dose: 25.0 mg/kg/injection, schedule: Q01DX011 (ip), vehicle: saline): 64 % of control
T/C (dose: 50.0 mg/kg/injection, schedule: Q01DX011 (ip), vehicle: saline): 57 % of control
T/C (dose: 75.0 mg/kg/injection, schedule: Q01DX011 (ip), vehicle: saline): 50 % of control

Nc1nc(Cl)cc(Nc2ccccc2Cl)n1
T/C [1]: 110 % of control
T/C [2]: 49 % of control
T/C [3]: 89 % of control
T/C [4]: 89 % of control
T/C [5]: 75 % of control

Cn1cnc2c(F)ncnc21
T/C (dose: 8.5 mg/kg/injection, schedule: Q01DX011 (ip), vehicle: carboxymethylcellulose (CMC)): 106 % of control
T/C (dose: 17.0 mg/kg/injection, schedule: Q01DX011 (ip), vehicle: carboxymethylcellulose (CMC)): 96 % of control
T/C (dose: 34.0 mg/kg/injection, schedule: Q01DX011 (ip), vehicle: carboxymethylcellulose (CMC)): 85 % of control
T/C (dose: 68.0 mg/kg/injection, schedule: Q01DX011 (ip), vehicle: carboxymethylcellulose (CMC)): 84 % of control

CC(=O)[C@H]1CC[C@H]2[C@@H]3C[C@H](C)C4=CC(=O)CC[C@]4(C)[C@H]3[C@@H](O)C[C@]12C
T/C (dose: 50.0 mg/kg/injection, schedule: Q01DX011 (sc), vehicle: steriod suspending solution): 56 % of control and 63 % of control
T/C (dose: 100.0 mg/kg/injection, schedule: Q01DX011 (sc), vehicle: steriod suspending solution): 59 % of control and 60 % of control
T/C (dose: 200.0 mg/kg/injection, schedule: Q01DX011 (sc), vehicle: steriod suspending solution): 15 % of control and 34 % of control

CC(Cc1ccccc1)NC(=O)CCl (centres undefined)
T/C (dose: 37.0 mg/kg/injection, schedule: Q01DX011 (im), vehicle: other): 68 % of control
T/C (dose: 37.0 mg/kg/injection, schedule: Q01DX011 (oral), vehicle: other): 71 % of control
T/C (dose: 37.0 mg/kg/injection, schedule: Q01DX011 (sc), vehicle: other): 118 % of control
T/C (dose: 50.0 mg/kg/injection, schedule: Q01DX011 (im), vehicle: other): 68 % of control
T/C (dose: 50.0 mg/kg/injection, schedule: Q01DX011 (oral), vehicle: other): 106 % of control
T/C (dose: 50.0 mg/kg/injection, schedule: Q01DX011 (sc), vehicle: other): 73 % of control
T/C (dose: 75.0 mg/kg/injection, schedule: Q01DX011 (im), vehicle: other): 48 % of control
T/C (dose: 75.0 mg/kg/injection, schedule: Q01DX011 (oral), vehicle: other): 87 % of control
T/C (dose: 75.0 mg/kg/injection, schedule: Q01DX011 (sc), vehicle: other): 63 % of control
T/C (dose: 112.0 mg/kg/injection, schedule: Q01DX011 (oral), vehicle: other): 82 % of control

NS(=O)(=O)c1nc2nc[nH]c2c(=O)[nH]1
T/C [6]: 66 % of control
T/C (dose: 75.0 mg/kg/injection, schedule: Q01DX011 (ip), vehicle: carboxymethylcellulose (CMC)): 78 % of control
T/C (dose: 225.0 mg/kg/injection, schedule: Q01DX011 (ip), vehicle: carboxymethylcellulose (CMC)): 61 % of control

CCCNS(=O)(=O)c1ncnc2nc[nH]c12
T/C (dose: 9.0 mg/kg/injection, schedule: Q01DX011 (ip), vehicle: carboxymethylcellulose (CMC)): 52 % of control
T/C (dose: 18.0 mg/kg/injection, schedule: Q01DX011 (ip), vehicle: carboxymethylcellulose (CMC)): 17 % of control
T/C (dose: 37.0 mg/kg/injection, schedule: Q01DX011 (ip), vehicle: carboxymethylcellulose (CMC)): 3 % of control

O=c1[nH]c(=O)n(C2CC(O)C(CO)O2)cc1F (centres undefined)
T/C (dose: 13.12 mg/kg/injection, schedule: Q01DX011 (ip), vehicle: carboxymethylcellulose (CMC)): 124 % of control
T/C (dose: 15.0 mg/kg/injection, schedule: Q01DX011 (ip), vehicle: carboxymethylcellulose (CMC)): 72 % of control
T/C (dose: 19.0 mg/kg/injection, schedule: Q01DX011 (ip), vehicle: other): 66 % of control
T/C (dose: 25.0 mg/kg/injection, schedule: Q01DX011 (ip), vehicle: methylcellulose (MC)): 54 % of control
T/C (dose: 26.25 mg/kg/injection, schedule: Q01DX011 (ip), vehicle: carboxymethylcellulose (CMC)): 68 % of control
T/C (dose: 30.0 mg/kg/injection, schedule: Q01DX006 (ip), vehicle: other): 80 % of control
T/C (dose: 30.0 mg/kg/injection, schedule: Q01DX011 (ip), vehicle: carboxymethylcellulose (CMC)): 37 % of control
T/C (dose: 37.5 mg/kg/injection, schedule: Q01DX011 (ip), vehicle: other): 28 % of control
T/C (dose: 50.0 mg/kg/injection, schedule: Q01DX011 (ip), vehicle: methylcellulose (MC)): 25 % of control
T/C (dose: 52.5 mg/kg/injection, schedule: Q01DX011 (ip), vehicle: carboxymethylcellulose (CMC)): 59 % of control
T/C (dose: 60.0 mg/kg/injection, schedule: Q01DX006 (ip), vehicle: other): 37 % of control
T/C (dose: 60.0 mg/kg/injection, schedule: Q01DX011 (ip), vehicle: carboxymethylcellulose (CMC)): 14 % of control
T/C (dose: 75.0 mg/kg/injection, schedule: Q01DX011 (ip), vehicle: other): 3 % of control
T/C (dose: 100.0 mg/kg/injection, schedule: Q01DX011 (ip), vehicle: methylcellulose (MC)): 6 % of control
T/C (dose: 105.0 mg/kg/injection, schedule: Q01DX011 (ip), vehicle: carboxymethylcellulose (CMC)): 54 % of control
T/C (dose: 120.0 mg/kg/injection, schedule: Q01DX006 (ip), vehicle: other): 29 % of control
T/C (dose: 121.0 mg/kg/injection, schedule: Q01DX011 (ip), vehicle: carboxymethylcellulose (CMC)): 3 % of control
T/C (dose: 240.0 mg/kg/injection, schedule: Q01DX006 (ip), vehicle: other): 6 % of control
T/C (dose: 480.0 mg/kg/injection, schedule: Q01DX006 (ip), vehicle: other): 2 % of control

CNc1nc(SCc2ccc(Cl)cc2Cl)ncc1C
T/C [1]: 84 % of control
T/C [2]: 69 % of control
T/C [3]: 67 % of control
T/C [4]: 73 % of control
T/C [5]: 61 % of control

CSc1ncnc2c1ncn2C1OC(CO)C(O)C1O (centres undefined)
T/C (dose: 1.9 mg/kg/injection, schedule: Q01DX011 (ip), vehicle: saline): 102 % of control and 87 % of control
T/C (dose: 3.0 mg/kg/injection, schedule: Q01DX011 (ip), vehicle: saline): 90 % of control
T/C (dose: 6.0 mg/kg/injection, schedule: Q01DX011 (ip), vehicle: saline): 112 % of control
T/C (dose: 7.5 mg/kg/injection, schedule: Q01DX011 (ip), vehicle: saline): 100 % of control and 120 % of control
T/C (dose: 12.5 mg/kg/injection, schedule: Q01DX011 (ip), vehicle: saline): 93 % of control

Cc1cnc(SCc2ccc(Cl)cc2Cl)[nH]c1=O
T/C [2]: 110 % of control
T/C [3]: 113 % of control
T/C [4]: 82 % of control
T/C [5]: 99 % of control

C=CC(O)CN1CC1(C)C (centres undefined) (tested in a mixture with another compound)
T/C (dose: 1.9 mg/kg/injection, schedule: Q01DX011 (ip), vehicle: methylcellulose (MC)): 99 % of control
T/C (dose: 3.75 mg/kg/injection, schedule: Q01DX011 (ip), vehicle: methylcellulose (MC)): 107 % of control
T/C [1]: 75 % of control

CC(C)C(Sc1nc(N)nc2nc[nH]c12)C(=O)O (centres undefined)
T/C (dose: 23.7 mg/kg/injection, schedule: Q01DX011 (ip), vehicle: carboxymethylcellulose (CMC)): 113 % of control
T/C (dose: 47.5 mg/kg/injection, schedule: Q01DX011 (ip), vehicle: carboxymethylcellulose (CMC)): 81 % of control
T/C (dose: 95.0 mg/kg/injection, schedule: Q01DX011 (ip), vehicle: carboxymethylcellulose (CMC)): 83 % of control
T/C (dose: 190.0 mg/kg/injection, schedule: Q01DX011 (ip), vehicle: carboxymethylcellulose (CMC)): 64 % of control
